# Structures can show the parent of a compound that is named as a salt.
# Legend:
# Assay type in all cases: in vivo
# [1] = test system: Abcd1−/Abcd2−/− (DKO) mice spinal cord; assay: Immunohistological analysis of axonal pathologies in Abcd1−/Abcd2−/− (DKO) mice spinal cord; details: 18 months of age, DMF 100 mg/kg in chow for 6 months
# From the text: (§1) a-x) Immunohistological analysis of axonal pathologies performed in 18-month-old WT, Abcd1^−/Abcd2^−/− (DKO) and Abcd1^−/Abcd2^−/− mice treated with DMF (DKO+DMF) (n=5 per genotype and condition). Spinal cord immunohistological sections were processed for (a-c) Iba1, (d-f) GFAP, (g-i) Synaptophysin, (j-l) APP, (m-o) Sudan black, (p-r) 8-oxo-dG, (s-u) CYT C and (v-x) SMI-32 immunostaining. Representative images for (a, d, g, j, m, p, s, v) WT, (b, e, h, k, n, q, t, w) DKO, and (c, f, i, l, o, r, u, x) DKO+DMF are shown. Scale bars=25 μm (a-r) and […] (s-x). y) Quantification of synaptophysin and APP accumulations in spinal cord immunohistological sections of WT (n=5), DKO (n=5) and DKO+DMF (n=5) mice. z) Bar-cross and treadmill tests performed on 18-month-old WT (n=14), Abcd1^−//Abcd2^−/− (DKO) (n=16) and Abcd1^−//Abcd2^−/− mice treated with DMF (DKO+DMF) (n=14). […] Values are expressed as mean±SD (*p<0.05, **p<0.01, ***p<0.001 after one-way ANOVA test followed by Tukey's post hoc test; p<0.05, p<0.001 after non-parametric Kruskal-Wallis' test).
# (§2) To address the therapeutic effect of DMF, we assessed the clinical signs of AMN in Abcd1^−/Abcd2^−/− (DKO) mice, which display increased VLCFA accumulation in the spinal cord, higher levels of oxidative damage to proteins, and a more severe AMN-like pathology with an earlier onset at 12 months of age.
# (§3) For biochemical analysis, we killed the mice and stored the tissues at −80° C. after snap-freezing them in liquid nitrogen. For histological analysis, spinal cord was harvested from 18-month-old mice after perfusing them with 4% paraformaldehyde (PFA; Sigma-Aldrich, Ref. 441244) in 0.1 M phosphate buffer pH 7.4. Histological and behavioural tests were performed in a blind way with respect to the animal's genotype and for the treatment administered.
# To evaluate the effect of DMF on axonal degeneration and locomotor impairment in X-ALD, Abcd1^−/Abcd2^−/− mice (DKO) were fed with chow including DMF (100 mg/kg).
# [2] = test system: Abcd1−/Abcd2−/− (DKO) mice; assay: Bar cross and treadmill tests in Abcd1−/Abcd2−/− (DKO) mice; details: 18 months of age, end of treatment, DMF 100 mg/kg in chow for 6 months
# From the text: as §1
# as §2, with “age. […]” for “age.”
# Abcd1− mice spinal cord = assay: Mitochondrial depletion and bioenergetic failure in Abcd1− mice spinal cord; details: 12 months of age, DMF 100 mg/kg/day in chow for 4 months
# Method: b) NRF2-dependent antioxidative genes (Hmox1, Nqo1 and Gst α 3) expression in WT (n=8), Abcd1^− (n=8) and Abcd1^−+DMF (n=8) mice spinal cord at 12 months of age. Gene expression levels were normalized relative to Rplp0. Quantification is represented as fold change to WT mice. c) Mitochondrial DNA (mtDNA) levels in WT (n=8), Abcd1^− (n=8) and Abcd1^−+DMF (n=8) mice spinal cord at 12 months of age. mtDNA content was measured by quantitative RT-PCR and expressed as the ratio of mtDNA (CytB levels) to nuclear DNA (nDNA, Cebpa levels). Quantification is depicted as fold change to WT mice. d) Sirt1, Pgc-1α, Nrf1 and Tfam expression was measured by quantitative RT-PCR in WT (n=8), Abcd1^− (n=8) and Abcd1^−+DMF (n=8) mice spinal cord at 12 months of age. Gene expression levels were normalized relative to Rplp0. Quantification is depicted as fold change to WT mice. e) ATP levels in WT (n=8), Abcd1^− (n=8) and Abcd1^−+DMF (n=8) mice spinal cord at 12 months of age. Quantification is represented as fold change to WT mice. Data are shown as mean±SD (*p<0.05, **p<0.01, ***p<0.001 after one-way ANOVA test followed by Tukey's post-hoc test; #p<0.05 after one-way ANOVA test followed by Dunnett's post-hoc test; p<0.05, p<0.01 after non-parametric Kruskal-Wallis' test).
# Cages contained 3 to 5 animals.
# We used two X-ALD mouse models in this study. We characterized the biochemical signs of adult X-ALD in Abcd1^− mice at 12 months of age. These mice show biochemical signs of pathology, including oxidative stress and energetic homeostasis impairment, before the first clinical signs of AMN-like pathology (axonopathy and locomotor impairment) appear at 20 months.
# as §3, with “Histological and behavioural tests were performed in a blind way with respect to the animal's genotype and for the treatment administered.” left out
smiles,measurement,setting,value
"COC(=O)/C=C/C(=O)OC [DMF, dimethyl fumarate]",accumulation of APP in axons,[1]; DKO mice spinal cord,prevented the accumulation
same,accumulation of synaptophysin in axons,[1]; DKO mice spinal cord,prevented the accumulation
same,astrocytosis (GFAP),[1]; DKO mice spinal cord,reversed
same,microgliosis (Iba1),[1]; DKO mice spinal cord,reversed
same,mitochondrial levels (CYT C staining in motor neurons),[1]; DKO mice spinal cord,improved
same,motor neurons health (SMI-32 staining),[1]; DKO mice spinal cord,improved
same,oxidative damage to DNA (8-oxo-dG staining),[1]; DKO mice spinal cord,reduced
same,myelin debris along the spinal cord (Sudan black),[1]; DKO mice,halted the appearance
same,bar cross test (number of slips and time to cross the bar),[2],behaved similar to WT mice
same,treadmill test (number and duration of shocks),[2],"improved the performance of DKO mice in this test, up to the level of WT mice"
same,mitochondrial DNA (mtDNA) levels,Abcd1− mice spinal cord; Abcd1− mouse spinal cord,normalized
same,"mitochondrial biogenesis genes mRNA expression (Sirt1, Pgc-1α, Nrf1, Tfam)",Abcd1− mice spinal cord; Abcd1− mouse spinal cord,normalized
same,ATP levels,Abcd1− mice spinal cord; X-ALD (Abcd1−) mouse spinal cord,normalized
